Assay results: PubChem BioAssay AID256 (DTP/NCI, 2004)
Values joined by “and” are separate entries in the source; they are usually repeats but may differ in a detail not shown here. Identical values can stand only once. Inconclusive results and toxic doses are left out.

System: CD2F1 mice, L1210 leukemia ip, survival T/C
Assay: NCI In Vivo Anticancer Drug Screen. Data for tumor model L1210 Leukemia (intraperitoneal) in CD2F1 (CDF1) mice
Details: higher = longer survival
In short: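 Implant tumor; dose compound or vehicle; measure endpoint in both groups; report treated divided by control.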

[1] = endpoint: mean survival time, dose: 100.0 mg/kg/injection, schedule: Q04DX003 (ip), vehicle: saline with Tween-80
[2] = endpoint: mean survival time, dose: 200.0 mg/kg/injection, schedule: Q04DX003 (ip), vehicle: saline with Tween-80
[3] = endpoint: mean survival time, dose: 400.0 mg/kg/injection, schedule: Q04DX003 (ip), vehicle: saline with Tween-80
[4] = endpoint: mean survival time, dose: 100.0 mg/kg/injection, schedule: Q01DX009 (ip), vehicle: saline with Tween-80
[5] = endpoint: mean survival time, dose: 200.0 mg/kg/injection, schedule: Q01DX009 (ip), vehicle: saline with Tween-80
[6] = endpoint: mean survival time, dose: 50.0 mg/kg/injection, schedule: Q01DX009 (ip), vehicle: saline with Tween-80

For NC1=NCNC(=O)N1, the T/C (endpoint: mean survival time, dose: 6.25 mg/kg/injection, schedule: Q04DX003 (ip), vehicle: saline) was 102 % of control, the T/C (endpoint: mean survival time, dose: 12.5 mg/kg/injection, schedule: Q04DX003 (ip), vehicle: saline) was 91 % of control and the T/C (endpoint: mean survival time, dose: 25.0 mg/kg/injection, schedule: Q04DX003 (ip), vehicle: saline) was 93 % of control. The T/C (endpoint: mean survival time, dose: 50.0 mg/kg/injection, schedule: Q04DX003 (ip), vehicle: saline) was 98 % of control, the T/C (endpoint: mean survival time, dose: 100.0 mg/kg/injection, schedule: Q04DX003 (ip), vehicle: saline) was 96 % of control and the T/C (endpoint: mean survival time, dose: 200.0 mg/kg/injection, schedule: Q04DX003 (ip), vehicle: saline) was 96 % of control. The T/C (endpoint: mean survival time, dose: 400.0 mg/kg/injection, schedule: Q04DX003 (ip), vehicle: saline) was 98 % of control.
For CN(C)C(=O)Nc1ccc(Br)cc1, the T/C (endpoint: mean survival time, dose: 100.0 mg/kg/injection, schedule: Q04DX002 (ip), vehicle: saline with Tween-80) was 86 % of control, the T/C (endpoint: mean survival time, dose: 200.0 mg/kg/injection, schedule: Q04DX002 (ip), vehicle: saline with Tween-80) was 93 % of control and the T/C (endpoint: mean survival time, dose: 400.0 mg/kg/injection, schedule: Q04DX002 (ip), vehicle: saline with Tween-80) was 93 % of control.
In the case of O=C1N[C@@H]2C(=C[C@H](O)[C@@H](O)[C@H]2O)c2cc3c(c(O)c21)OCO3, the T/C (endpoint: median survival time, dose: 0.62 mg/kg/injection, schedule: Q01DX009 (ip), vehicle: saline with Tween-80) was 110 % of control, the T/C (endpoint: median survival time, dose: 1.25 mg/kg/injection, schedule: Q01DX009 (ip), vehicle: saline with Tween-80) was 108 % of control and the T/C (endpoint: median survival time, dose: 2.5 mg/kg/injection, schedule: Q01DX009 (ip), vehicle: saline with Tween-80) was 113 % of control. The T/C (endpoint: median survival time, dose: 5.0 mg/kg/injection, schedule: Q01DX009 (ip), vehicle: saline with Tween-80) was 115 % of control.
In the case of O=NNc1cccc(NN=O)n1, the T/C (endpoint: median survival time, dose: 6.25 mg/kg/injection, schedule: Q01DX005 (ip), vehicle: saline) was 115 % of control and 108 % of control, the T/C (endpoint: median survival time, dose: 12.5 mg/kg/injection, schedule: Q01DX005 (ip), vehicle: saline) was 121 % of control and the T/C (endpoint: median survival time, dose: 29.0 mg/kg/injection, schedule: Q01DX005 (ip), vehicle: saline) was 153 % of control. The T/C (endpoint: median survival time, dose: 44.0 mg/kg/injection, schedule: Q01DX005 (ip), vehicle: saline) was 166 % of control and the T/C (endpoint: median survival time, dose: 100.0 mg/kg/injection, schedule: Q01DX005 (ip), vehicle: saline) was 122 % of control and 91 % of control and 98 % of control.
For Nc1ccc(C(=O)CC(O)(C(F)(F)F)C(F)(F)F)cc1, the T/C [1] was 113 % of control, the T/C [2] was 111 % of control and the T/C [3] was 113 % of control.
In the case of CS(=O)(=O)CS(=O)(=O)OCCCl, the T/C (endpoint: median survival time, dose: 6.25 mg/kg/injection, schedule: Q01DX009 (ip), vehicle: saline with Tween-80) was 116 % of control and 121 % of control, the T/C (endpoint: median survival time, dose: 12.5 mg/kg/injection, schedule: Q01DX009 (ip), vehicle: saline with Tween-80) was 168 % of control and the T/C (endpoint: median survival time, dose: 25.0 mg/kg/injection, schedule: Q01DX009 (ip), vehicle: saline with Tween-80) was 207 % of control and 228 % of control. For the same compound, the T/C (endpoint: median survival time, dose: 25.0 mg/kg/injection, schedule: Q01DX009 (ip), vehicle: saline) was 197 % of control, the T/C (endpoint: median survival time, dose: 50.0 mg/kg/injection, schedule: Q01DX009 (ip), vehicle: saline with Tween-80) was 370 % of control and 722 % of control and the T/C (endpoint: median survival time, dose: 50.0 mg/kg/injection, schedule: Q01DX009 (ip), vehicle: saline) was 352 % of control. The T/C (endpoint: median survival time, dose: 100.0 mg/kg/injection, schedule: Q01DX009 (ip), vehicle: saline with Tween-80) was 370 % of control and the T/C (endpoint: median survival time, dose: 100.0 mg/kg/injection, schedule: Q01DX009 (ip), vehicle: saline) was 352 % of control.
In the case of CN(C1=CC(=O)c2ccccc2C1=O)C1CCCCC1, the T/C [1] was 93 % of control, the T/C [2] was 93 % of control and the T/C [3] was 104 % of control.
O=C(O)CCc1cc([N+](=O)[O-])c(O)c([N+](=O)[O-])c1 was tested, and the T/C [4] was 94 % of control and the T/C [5] was 89 % of control.
In the case of CC12CCC(=O)C1O2 (stereo not given), the T/C (endpoint: mean survival time, dose: 12.5 mg/kg/injection, schedule: Q04DX002 (ip), vehicle: saline with Tween-80) was 103 % of control, the T/C (endpoint: mean survival time, dose: 25.0 mg/kg/injection, schedule: Q04DX002 (ip), vehicle: saline with Tween-80) was 100 % of control and the T/C (endpoint: mean survival time, dose: 50.0 mg/kg/injection, schedule: Q04DX002 (ip), vehicle: saline with Tween-80) was 100 % of control.
With CN1C(=O)c2ccccc2C1(/N=C/c1ccccc1)c1ccccc1 (stereo not given) the T/C [1] was 96 % of control, the T/C [2] was 96 % of control and the T/C [3] was 96 % of control.
In the case of COC(=O)[C@H]1[C@H]2C[C@@H]3c4[nH]c5cc(OC)ccc5c4CCN3C[C@H]2C[C@@H](OC(=O)/C=C/c2cc(OC)c(OC)c(OC)c2)[C@@H]1OC, the T/C (endpoint: mean survival time, dose: 0.63 mg/kg/injection, schedule: Q01DX009 (ip), vehicle: saline sonified) was 86 % of control, the T/C (endpoint: mean survival time, dose: 1.25 mg/kg/injection, schedule: Q01DX009 (ip), vehicle: saline sonified) was 96 % of control and the T/C (endpoint: mean survival time, dose: 2.5 mg/kg/injection, schedule: Q01DX009 (ip), vehicle: saline sonified) was 90 % of control. The T/C (endpoint: mean survival time, dose: 5.0 mg/kg/injection, schedule: Q04DX003 (ip), vehicle: saline with Tween-80) was 95 % of control, the T/C (endpoint: mean survival time, dose: 10.0 mg/kg/injection, schedule: Q04DX003 (ip), vehicle: saline with Tween-80) was 101 % of control and the T/C (endpoint: mean survival time, dose: 20.0 mg/kg/injection, schedule: Q04DX003 (ip), vehicle: saline with Tween-80) was 112 % of control.
In the case of CC(=O)NC(CO)C1C(CO)OC(n2ccc(=O)[nH]c2=O)C1O (stereo not given), the T/C (endpoint: mean survival time, dose: 6.25 mg/kg/injection, schedule: Q01DX005 (ip), vehicle: water) was 101 % of control, the T/C (endpoint: mean survival time, dose: 12.5 mg/kg/injection, schedule: Q01DX005 (ip), vehicle: water) was 101 % of control and the T/C (endpoint: mean survival time, dose: 25.0 mg/kg/injection, schedule: Q01DX005 (ip), vehicle: water) was 98 % of control. The T/C (endpoint: mean survival time, dose: 50.0 mg/kg/injection, schedule: Q01DX005 (ip), vehicle: water) was 103 % of control and the T/C (endpoint: mean survival time, dose: 100.0 mg/kg/injection, schedule: Q01DX005 (ip), vehicle: water) was 96 % of control.
With O=P1(OCCCCCl)NCCCO1 (stereo not given) the T/C (endpoint: mean survival time, dose: 62.5 mg/kg/injection, schedule: Q01DX001 (ip), vehicle: water) was 103 % of control, the T/C (endpoint: mean survival time, dose: 125.0 mg/kg/injection, schedule: Q01DX001 (ip), vehicle: water) was 104 % of control and the T/C (endpoint: mean survival time, dose: 250.0 mg/kg/injection, schedule: Q01DX001 (ip), vehicle: water) was 103 % of control. The T/C (endpoint: mean survival time, dose: 500.0 mg/kg/injection, schedule: Q01DX001 (ip), vehicle: water) was 108 % of control and the T/C (endpoint: mean survival time, dose: 750.0 mg/kg/injection, schedule: Q01DX001 (ip), vehicle: water) was 101 % of control.
In the case of [Cl][Pt+].[NH-]c1ccccc1C=Nc1ccccc1C=O, the T/C (endpoint: median survival time, dose: 11.5 mg/kg/injection, schedule: Q04DX003 (ip), vehicle: saline with Tween-80) was 100 % of control, the T/C (endpoint: median survival time, dose: 23.0 mg/kg/injection, schedule: Q04DX003 (ip), vehicle: saline with Tween-80) was 105 % of control and the T/C (endpoint: median survival time, dose: 46.0 mg/kg/injection, schedule: Q04DX003 (ip), vehicle: saline with Tween-80) was 105 % of control. For the same compound, the T/C (endpoint: median survival time, dose: 92.0 mg/kg/injection, schedule: Q04DX003 (ip), vehicle: saline with Tween-80) was 97 % of control and the T/C (endpoint: median survival time, dose: 184.0 mg/kg/injection, schedule: Q04DX003 (ip), vehicle: saline with Tween-80) was 98 % of control.
COC(=O)C1c2ccccc2-c2ccccc21 was tested, and the T/C (endpoint: mean survival time, dose: 50.0 mg/kg/injection, schedule: Q04DX003 (ip), vehicle: saline with Tween-80) was 95 % of control, the T/C [1] was 103 % of control and the T/C [2] was 100 % of control.
With CNC(=O)c1nc2c(nc1NC)n(C)c(=O)n2C the T/C (endpoint: mean survival time, dose: 12.5 mg/kg/injection, schedule: Q01DX005 (ip), vehicle: other) was 93 % of control, the T/C (endpoint: mean survival time, dose: 25.0 mg/kg/injection, schedule: Q01DX005 (ip), vehicle: other) was 90 % of control and the T/C (endpoint: mean survival time, dose: 50.0 mg/kg/injection, schedule: Q01DX005 (ip), vehicle: other) was 95 % of control.
In the case of N#CCCCCN=[N+]=[N-], the T/C (endpoint: mean survival time, dose: 75.0 mg/kg/injection, schedule: Q01DX001 (ip), vehicle: saline) was 97 % of control and the T/C (endpoint: mean survival time, dose: 150.0 mg/kg/injection, schedule: Q01DX001 (ip), vehicle: saline) was 103 % of control.
With COc1ccc(/C=N/NC(=O)CNC(=O)Nc2cccc(C(F)(F)F)c2)cc1 the T/C [6] was 92 % of control, the T/C [4] was 88 % of control and the T/C [5] was 92 % of control.
With O=C1c2ccccc2C(=O)c2cc(S(=O)(=O)O)ccc21 the T/C (endpoint: mean survival time, dose: 100.0 mg/kg/injection, schedule: Q01DX001 (ip), vehicle: Klucel (hydroxypropylcellulose) (HPC)) was 104 % of control, the T/C [4] was 98 % of control and the T/C (endpoint: mean survival time, dose: 200.0 mg/kg/injection, schedule: Q01DX001 (ip), vehicle: Klucel (hydroxypropylcellulose) (HPC)) was 96 % of control. The T/C [5] was 90 % of control, the T/C (endpoint: mean survival time, dose: 400.0 mg/kg/injection, schedule: Q01DX001 (ip), vehicle: Klucel (hydroxypropylcellulose) (HPC)) was 104 % of control and the T/C (endpoint: mean survival time, dose: 400.0 mg/kg/injection, schedule: Q01DX009 (ip), vehicle: saline with Tween-80) was 90 % of control.
With CCOC(=O)c1c[nH]c2cc(OC)ccc2c1=O the T/C [1] was 91 % of control, the T/C [2] was 102 % of control and the T/C [3] was 100 % of control.
CCCCN1CCCC(O)C1 (stereo not given) was tested, and the T/C [6] was 100 % of control, the T/C [4] was 100 % of control and the T/C [5] was 103 % of control.
